Consider 44 compounds from US10214534B2, “Substituted 2-phenyl (AZA)benzofuran compounds for the treatment of hepatitis C” (BRISTOL-MYERS SQUIBB COMPANY, priority 2014, dated 2019).

This assay relates to genotype 1b (Con-1) HCV replicon. In words: HCV replicon luciferase assay. The class given is cell-based. Particulars: Hepatitis C virus, 72 h, genotype 1b replicon, Huh-7, Renilla luciferase, 3 days. Here is the method: The cell lines used to evaluate compounds consist of a human hepatocyte derived cell line (Huh-7) that constitutively expresses a genotype 1b (Con-1) HCV replicon or a genotype 1b (Con-1) HCV replicon with an asparagine replacing the cysteine at amino acid 316, or a genotype 2a (JFH-1) replicon, containing a Renilla luciferase reporter gene. These cells were maintained in Dulbecco's modified Eagle medium (DMEM) containing 10% FBS, 100 U/mL penicillin/streptomycin and 1.0 mg/mL G418.
To evaluate compound efficacy, titrated compounds were transferred to sterile 384-well tissue culture treated plates, and the plates were seeded with HCV replicon cells (50 μL at a density of 2.4×10^3 cells/well) in DMEM containing 4% FBS (final DMSO concentration at 0.5%). After 3 days incubation at 37° C., cells were analyzed for Renilla Luciferase activity using the EnduRen substrate (Promega cat #E6485) according to the manufacturer's directions. Briefly, the EnduRen substrate was diluted in DMEM and then added to the plates to a final concentration of 7.5 μM. The plates were incubated for at least 1 h at 37° C. then read on a Viewlux Imager (PerkinElmer) using a luminescence program. The 50% effective concentration (EC50) was calculated using the four-parameter logistic formula noted above.

Like-named read-outs stand apart in the source and are kept apart here. Bounds are passed on as bounds.

In the case of `CCN(c1cc2oc(-c3ccc(Oc4ccccc4)cc3)c(C(=O)NC)c2cc1-c1cccc(C(=O)NC(C)(C)C)c1)S(C)(=O)=O` [Compound 1001], the EC50 – broadly, the concentration giving half of the maximal effect – (read-out: EC50 1b (class)) is under 0.1 µM.

As for `CCN(c1cc2oc(-c3ccc(Oc4ccc(F)cc4)cc3)c(C(=O)NC)c2cc1-c1cccc(C(=O)NC(C)(C)C)c1)S(C)(=O)=O` [Compound 1002], under “read-out: EC50 1b (class)”, the 50% effective concentration (EC50) is under 0.1 µM. In the case of `CCN(c1cc2oc(-c3ccc(Oc4cccc(F)c4)cc3)c(C(=O)NC)c2cc1-c1cccc(C(=O)NC(C)(C)C)c1)S(C)(=O)=O` [Compound 1003], the EC50 is under 0.1 µM (read-out: EC50 1b (class)) and 0.0023 µM (read-out: EC50 (uM) 1b).

Regarding `CCN(c1cc2oc(-c3ccc(Oc4ccccc4F)cc3)c(C(=O)NC)c2cc1-c1cccc(C(=O)NC(C)(C)C)c1)S(C)(=O)=O` [Compound 1004], the EC50 (read-out: EC50 1b (class)) is under 0.1 µM.

`CCN(c1cc2oc(-c3ccc(Oc4ccc(OC)cc4)cc3)c(C(=O)NC)c2cc1-c1cccc(C(=O)NC(C)(C)C)c1)S(C)(=O)=O` [Compound 1005]: the EC50 (read-out: EC50 1b (class)) lay within 0.1 to 1 µM and the EC50 (read-out: EC50 (uM) 1b) was 0.12 µM. Turning to `CCN(c1cc2oc(-c3ccc(Oc4cccc(OC)c4)cc3)c(C(=O)NC)c2cc1-c1cccc(C(=O)NC(C)(C)C)c1)S(C)(=O)=O` [Compound 1006], under “read-out: EC50 1b (class)”, the EC50 is under 0.1 µM. Take `CCN(c1cc2oc(-c3ccc(Oc4ccccc4OC)cc3)c(C(=O)NC)c2cc1-c1cccc(C(=O)NC(C)(C)C)c1)S(C)(=O)=O` [Compound 1007]: the EC50 was under 0.1 µM (read-out: EC50 1b (class)) and 0.024 µM (read-out: EC50 (uM) 1b). For the compound `CCN(CC)c1cc2oc(-c3ccc(Oc4cccc(F)c4)cc3)c(C(=O)NC)c2cc1-c1ccc(O)c(C(N)=O)c1` [Compound 1008], the EC50 runs as follows: (read-out: EC50 1b (class)) under 0.1 µM; (read-out: EC50 (uM) 1b) 0.013 µM.

Regarding `CCN(CC)c1cc2oc(-c3ccc(Oc4cccc(F)c4)cc3)c(C(=O)NC)c2cc1-c1ccc(OC)c(C(N)=O)c1` [Compound 1010], where the note is “read-out: EC50 1b (class)”, the EC50 was in the range of 0.1 to 1 µM. Regarding `CCN(CC)c1cc2oc(-c3ccc(Oc4cccc(F)c4)cc3)c(C(=O)NC)c2cc1-c1cccc(C(=O)NC(C)(C)C(=O)O)c1` [Compound 1012], the concentration giving a half-maximal response (EC50) was over 1 µM (read-out: EC50 1b (class)) and 1.47 µM (read-out: EC50 (uM) 1b). For the compound `CCNc1cc2oc(-c3ccc(Oc4cccc(F)c4)cc3)c(C(=O)NC)c2cc1-c1cccc(C(=O)NC(C)(C)CC(=O)O)c1` [Compound 1013], the 50% effective concentration (EC50) (read-out: EC50 1b (class)) lay in the range of 0.1 to 1 µM. As to `CCOC(=O)c1c(-c2ccc(Oc3cccc(O)c3)cc2)oc2cc([N+](=O)[O-])c(O)cc12` [Compound 1014], the EC50 reads like this: (read-out: EC50 1b (class)) over 1 µM; (read-out: EC50 (uM) 1b) 9.94 µM. As to `CCN(c1cc2oc(-c3ccc(Oc4cccc(F)c4)cc3)c(C(=O)NC)c2cc1-c1cccc(C(=O)NC2(C)CC2)c1)S(C)(=O)=O` [Compound 1015], under “read-out: EC50 1b (class)”, the concentration giving a half-maximal response (EC50) is over 1 µM. The same measure, in the same setting: under `CCN(c1cc2oc(-c3ccc(Oc4cccc(Cl)c4)cc3)c(C(=O)NC)c2cc1-c1cccc(C(N)=O)c1)S(C)(=O)=O` [Compound 1016] stands under 0.1 µM. For the compound `CCN(c1cc2oc(-c3ccc(Oc4cccc(F)c4)cc3)c(C(=O)NC)c2cc1-c1cccc(C(=O)N[C@@H](C)C(F)(F)F)c1)S(C)(=O)=O` [Compound 1017], the concentration giving a half-maximal response (EC50) was under 0.1 µM (read-out: EC50 1b (class)) and 0.0062 µM (read-out: EC50 (uM) 1b). As to `CCN(c1cc2oc(-c3ccc(Oc4cccc(F)c4)cc3)c(C(=O)NC)c2cc1-c1cccc(C(N)=O)c1)S(C)(=O)=O` [Compound 1018], the EC50 (read-out: EC50 1b (class)) is under 0.1 µM. For `CCN(c1cc2oc(-c3ccc(Oc4cccc(Cl)c4)cc3)c(C(=O)NC)c2cc1-c1cccc(C(=O)N[C@@H](C)C(F)(F)F)c1)S(C)(=O)=O` [Compound 1019], the EC50 (read-out: EC50 1b (class)) was under 0.1 µM. For `CNC(=O)c1c(-c2ccc(Oc3cccc(F)c3)cc2)oc2cc(N(C)S(C)(=O)=O)c(-c3cccc(C(=O)NCC(F)(F)F)c3)cc12` [Compound 1020], the EC50 (read-out: EC50 1b (class)) is under 0.1 µM. For the compound `[2H]C([2H])([2H])C(NC(=O)c1cc(-c2cc3c(C(=O)NC)c(-c4ccc(Oc5cccc(F)c5)cc4)oc3cc2N(CC)S(C)(=O)=O)ccc1OC)(C([2H])([2H])[2H])C([2H])([2H])[2H]` [Compound 1021], the EC50 (read-out: EC50 1b (class)) was under 0.1 µM. Regarding `[2H]C([2H])([2H])C(NC(=O)c1cc(-c2cc3c(C(=O)NC)c(-c4ccc(Oc5ccc(F)cc5)cc4)oc3cc2N(CC)S(C)(=O)=O)ccc1OC)(C([2H])([2H])[2H])C([2H])([2H])[2H]` [Compound 1022], the half-maximal effective concentration (EC50) (read-out: EC50 1b (class)) is under 0.1 µM. In the case of `CCN(c1cc2oc(-c3ccc(Oc4cccc(F)c4)cc3)c(C(=O)NC)c2cc1-c1cccc(C(=O)NCC(C)(C)CO)c1)S(C)(=O)=O` [Compound 1023], the EC50 runs as follows: (read-out: EC50 1b (class)) under 0.1 µM; (read-out: EC50 (uM) 1b) 0.0028 µM. Regarding `CNC(=O)c1c(-c2ccc(Oc3ccc(F)cc3)cc2)oc2cc(N(C)S(C)(=O)=O)c(-c3cccc(C(=O)NCC(F)(F)F)c3)cc12` [Compound 1026], under “read-out: EC50 1b (class)”, the EC50 is under 0.1 µM. Take `CNC(=O)c1c(-c2ccc(Oc3ccccc3)cc2)oc2nc(CCC(F)(F)F)c(-c3cccc(C(=O)NC(C)(C)C)c3)cc12` [Compound 2001]: the half-maximal effective concentration (EC50) (read-out: EC50 1b (class)) is under 0.1 µM. Take `CNC(=O)c1c(-c2ccc(Oc3ccc(C)cc3)cc2)oc2nc(CCC(F)(F)F)c(-c3cccc(C(=O)NC(C)(C)C)c3)cc12` [Compound 2002]: the concentration for a half-maximal effect (EC50) (read-out: EC50 1b (class)) was under 0.1 µM. In the case of `CNC(=O)c1c(-c2ccc(Oc3ccc(OC)cc3)cc2)oc2nc(CCC(F)(F)F)c(-c3cccc(C(=O)NC(C)(C)C)c3)cc12` [Compound 2003], the 50% effective concentration (EC50) (read-out: EC50 1b (class)) fell in the range of 0.1 to 1 µM. Still for that read-out and setting: under `CNC(=O)c1c(-c2ccc(Oc3ccc(F)cc3)cc2)oc2nc(CCC(F)(F)F)c(-c3cccc(C(=O)NC(C)(C)C)c3)cc12` [Compound 2004] stands under 0.1 µM; under `CNC(=O)c1c(-c2ccc(Oc3cccc(F)c3)cc2)oc2nc(CCC(F)(F)F)c(-c3cccc(C(=O)NC(C)(C)C)c3)cc12` [Compound 2005], under 0.1 µM; under `CNC(=O)c1c(-c2ccc(Oc3ccccc3F)cc2)oc2nc(CCC(F)(F)F)c(-c3cccc(C(=O)NC(C)(C)C)c3)cc12` [Compound 2006], under 0.1 µM. `CNC(=O)c1c(-c2ccc(Oc3cccc(C)c3)cc2)oc2nc(CCC(F)(F)F)c(-c3cccc(C(=O)NC(C)(C)C)c3)cc12` [Compound 2007]: the concentration giving a half-maximal response (EC50) (read-out: EC50 1b (class)) was under 0.1 µM.

Turning to `CNC(=O)c1c(-c2ccc(Oc3ccccc3C)cc2)oc2nc(CCC(F)(F)F)c(-c3cccc(C(=O)NC(C)(C)C)c3)cc12` [Compound 2008], the concentration giving a half-maximal response (EC50) (read-out: EC50 1b (class)) was under 0.1 µM.

With `CNC(=O)c1c(-c2ccc(Oc3cccc(OC)c3)cc2)oc2nc(CCC(F)(F)F)c(-c3cccc(C(=O)NC(C)(C)C)c3)cc12` [Compound 2009], the EC50 (read-out: EC50 1b (class)) was under 0.1 µM. On the same count and under the same terms, under `CNC(=O)c1c(-c2ccc(Oc3ccccc3OC)cc2)oc2nc(CCC(F)(F)F)c(-c3cccc(C(=O)NC(C)(C)C)c3)cc12` [Compound 2010] stands under 0.1 µM. Turning to `CNC(=O)c1c(-c2ccc(Oc3cccnc3)cc2)oc2nc(CCC(F)(F)F)c(-c3cccc(C(=O)NC(C)(C)C)c3)cc12` [Compound 2011], the concentration giving a half-maximal response (EC50) (read-out: EC50 1b (class)) is under 0.1 µM. As to `CNC(=O)c1c(-c2ccc(Oc3ccccn3)cc2)oc2nc(CCC(F)(F)F)c(-c3cccc(C(=O)NC(C)(C)C)c3)cc12` [Compound 2012], the EC50 (read-out: EC50 1b (class)) was over 1 µM. In the case of `CNC(=O)c1c(-c2ccc(Oc3ccc(C(=O)O)cc3)cc2)oc2nc(CCC(F)(F)F)c(-c3cccc(C(=O)NC(C)(C)C)c3)cc12` [Compound 2013], the EC50 (read-out: EC50 1b (class)) is over 1 µM. Regarding `CNC(=O)c1c(-c2ccc(Oc3cccc(F)c3)cc2)oc2nc(CCC(F)(F)F)c(-c3ccc(OC)c(C(=O)NC4(c5ncccn5)CC4)c3)cc12` [Compound 2014], the concentration for a half-maximal effect (EC50) (read-out: EC50 1b (class)) was under 0.1 µM. On the same count and under the same terms, the same measure for `CCCCOc1ccc(-c2oc3nc(CCC(F)(F)F)c(-c4cccc(C(=O)NC(C)(C)C)c4)cc3c2C(=O)NC)cc1` [Compound 3001]: under 0.1 µM. Regarding `CNC(=O)c1c(-c2ccc(OCC(F)(F)F)cc2)oc2nc(CCC(F)(F)F)c(-c3cccc(C(=O)NC(C)(C)C)c3)cc12` [Compound 3002], the EC50 (read-out: EC50 1b (class)) is under 0.1 µM.

With `CNC(=O)c1c(-c2ccc(N3CCCC3)cc2)oc2nc(CCC(F)(F)F)c(-c3cccc(C(=O)NC(C)(C)C)c3)cc12` [Compound 4001], the concentration giving a half-maximal response (EC50) (read-out: EC50 1b (class)) is over 1 µM. In the case of `CNC(=O)c1c(-c2ccc(NCC(F)F)cc2)oc2nc(NCC(F)F)c(-c3cccc(C(=O)NC(C)(C)C)c3)cc12` [Compound 4002], the EC50 reads like this: (read-out: EC50 1b (class)) under 0.1 µM; (read-out: EC50 (uM) 1b) 0.0094 µM.

Take `CNC(=O)c1c(-c2ccc(Sc3ccccc3)cc2)oc2nc(CCC(F)(F)F)c(-c3cccc(C(=O)NC(C)(C)C)c3)cc12` [Compound 5001]: the EC50 is, setting by setting: (read-out: EC50 1b (class)) 0.1 to 1 µM; (read-out: EC50 (uM) 1b) 0.16 µM. The matching figures for `CNC(=O)c1c(-c2ccc(C(C#N)C(N)=O)cc2)oc2nc(CCC(F)(F)F)c(-c3cccc(C(=O)NC(C)(C)C)c3)cc12` (stereo not drawn) [Compound 6001]: 0.1 to 1 µM and 0.34 µM. In the case of `CCNc1nc2oc(-c3ccc(C)cc3)c(C(=O)NC)c2cc1-c1cccc(C(=O)NC(C)(C)C)c1` [Compound 6002, 5-(3-(tert-butylcarbamoyl)phenyl)-6-(ethylamino)-N-methyl-2-(p-tolyl)furo[2,3-b]pyridine-3-carboxamide], the EC50 is under 0.1 µM (read-out: EC50 1b (class)) and 0.0036 µM (read-out: EC50 (uM) 1b).

For `CCNc1nc2oc(-c3ccc(C)cc3)c(C(=O)NC)c2cc1-c1cccc(C(=O)NC2(C(F)(F)F)CC2)c1` [Compound 6003, 6-(ethylamino)-N-methyl-2-(p-tolyl)-5-(3-((1-(trifluoromethyl)cyclopropyl)carbamoyl)phenyl)furo[2,3-b]pyridine-3-carboxamide], the 50% effective concentration (EC50) reads like this: (read-out: EC50 1b (class)) under 0.1 µM; (read-out: EC50 (uM) 1b) 0.0061 µM.
